Test results taken from PubChem BioAssay AID1963868 (Molecular Pharmacology Branch, DTP, NCI, 2024).
pIC50: −log10 of the molar value.

Tested on: KRAS PDC tumor spheroids (HUVEC+MSC), viability
Assay: Anticancer human tumor 254851-301-R-J1-PDC patient-derived colon carcinoma cell line growth inhibition [KRAS2]
Conditions: for pIC50: curve of first compound; for viability, T/C: stronger effect = lower value
Summary of the method: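 Combination screen of spheroid viability in tumor-cell co-cultures with endothelial (HUVEC) and mesenchymal stem cell stroma. Each agent was tested in half-log dilutions, topping at clinical Cmax or at 10 microM without a known Cmax.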

[1] = second compound 0.1 µM, first compound 0.01 µM
[2] = second compound 0.1 µM, first compound 0.0316 µM
[3] = second compound 0.1 µM, first compound 0.1 µM
[4] = second compound 0.1 µM, first compound 0.316 µM
[5] = second compound 0.1 µM, first compound 1 µM
[6] = second compound 0.1 µM, first compound 3.16 µM
[7] = second compound 0.316 µM, first compound 0.01 µM
[8] = second compound 0.316 µM, first compound 0.0316 µM
[9] = second compound 0.316 µM, first compound 0.1 µM
[10] = second compound 0.316 µM, first compound 0.316 µM
[11] = second compound 0.316 µM, first compound 1 µM
[12] = second compound 0.316 µM, first compound 3.16 µM
[13] = second compound 1 µM, first compound 0.01 µM
[14] = second compound 1 µM, first compound 0.0316 µM
[15] = second compound 1 µM, first compound 0.1 µM
[16] = second compound 1 µM, first compound 0.316 µM
[17] = second compound 1 µM, first compound 1 µM
[18] = second compound 1 µM, first compound 3.16 µM
[19] = second compound 3.16 µM, first compound 0.01 µM
[20] = second compound 3.16 µM, first compound 0.0316 µM
[21] = second compound 3.16 µM, first compound 0.1 µM
[22] = second compound 3.16 µM, first compound 0.316 µM
[23] = second compound 3.16 µM, first compound 1 µM
[24] = second compound 3.16 µM, first compound 3.16 µM
[25] = second compound 10 µM, first compound 0.01 µM
[26] = second compound 10 µM, first compound 0.0316 µM
[27] = second compound 10 µM, first compound 0.1 µM
[28] = second compound 10 µM, first compound 0.316 µM
[29] = second compound 10 µM, first compound 1 µM
[30] = second compound 10 µM, first compound 3.16 µM
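Note: spheroids exposed to compounds for seven days before readout.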
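Throughout, for viability, T/C: 100% = DMSO vehicle control luminescence of the spheroids.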

## CC(=O)OC12COC1CC(O)C1(C)C(=O)C(O)C3=C(C)C(OC(=O)C(O)C(NC(=O)OC(C)(C)C)c4ccccc4)CC(O)(C(OC(=O)c4ccccc4)C21)C3(C)C (stereo not given) + CC1OCC2(CCN(c3cnc(Sc4ccnc(N)c4Cl)c(N)n3)CC2)C1N
Second compound 0.1 µM
  pIC50: 6.81
Second compound 0.316 µM
  pIC50: 6.76
Second compound 1 µM
  pIC50: 6.77
Second compound 3.16 µM
  pIC50: 7.10
Second compound 10 µM
  pIC50: 7.23
[1]
  viability, T/C: 99.2%
[2]
  viability, T/C: 89.1%
[3]
  viability, T/C: 59.8%
[4]
  viability, T/C: 33.6%
[5]
  viability, T/C: 24.1%
[6]
  viability, T/C: 24%
[7]
  viability, T/C: 93.3%
[8]
  viability, T/C: 85.8%
[9]
  viability, T/C: 61.6%
[10]
  viability, T/C: 38.1%
[11]
  viability, T/C: 23.2%
[12]
  viability, T/C: 22.6%
[13]
  viability, T/C: 80.7%
[14]
  viability, T/C: 89.6%
[15]
  viability, T/C: 60.5%
[16]
  viability, T/C: 36.1%
[17]
  viability, T/C: 26.6%
[18]
  viability, T/C: 22.9%
[19]
  viability, T/C: 73.3%
[20]
  viability, T/C: 72.3%
[21]
  viability, T/C: 44.5%
[22]
  viability, T/C: 22.3%
[23]
  viability, T/C: 17.1%
[24]
  viability, T/C: 18.6%
[25]
  viability, T/C: 64.2%
[26]
  viability, T/C: 66.4%
[27]
  viability, T/C: 36.7%
[28]
  viability, T/C: 21.2%
[29]
  viability, T/C: 16.1%
[30]
  viability, T/C: 16.1%

## CN(C)C/C=C/C(=O)Nc1cc2c(Nc3ccc(F)c(Cl)c3)ncnc2cc1O[C@H]1CCOC1 + CC1OCC2(CCN(c3cnc(Sc4ccnc(N)c4Cl)c(N)n3)CC2)C1N
Second compound 0.1 µM
  pIC50: < 7.00
Second compound 0.316 µM
  pIC50: < 7.00
Second compound 1 µM
  pIC50: < 7.00
Second compound 3.16 µM
  pIC50: < 7.00
Second compound 10 µM
  pIC50: 7.20
Second compound 0.1 µM, first compound 0.000316 µM
  viability, T/C: 105%
Second compound 0.1 µM, first compound 0.001 µM
  viability, T/C: 106%
Second compound 0.1 µM, first compound 0.00316 µM
  viability, T/C: 92.8%
[1]
  viability, T/C: 90.2%
[2]
  viability, T/C: 84.5%
[3]
  viability, T/C: 65.2%
Second compound 0.316 µM, first compound 0.000316 µM
  viability, T/C: 94.5%
Second compound 0.316 µM, first compound 0.001 µM
  viability, T/C: 84.3%
Second compound 0.316 µM, first compound 0.00316 µM
  viability, T/C: 82.8%
[7]
  viability, T/C: 80.2%
[8]
  viability, T/C: 83.4%
[9]
  viability, T/C: 68%
Second compound 1 µM, first compound 0.000316 µM
  viability, T/C: 95.9%
Second compound 1 µM, first compound 0.001 µM
  viability, T/C: 84.2%
Second compound 1 µM, first compound 0.00316 µM
  viability, T/C: 88.1%
[13]
  viability, T/C: 91.8%
[14]
  viability, T/C: 79.8%
[15]
  viability, T/C: 75.8%
Second compound 3.16 µM, first compound 0.000316 µM
  viability, T/C: 67.6%
Second compound 3.16 µM, first compound 0.001 µM
  viability, T/C: 64.1%
Second compound 3.16 µM, first compound 0.00316 µM
  viability, T/C: 62.8%
[19]
  viability, T/C: 60.4%
[20]
  viability, T/C: 59%
[21]
  viability, T/C: 51.6%
Second compound 10 µM, first compound 0.000316 µM
  viability, T/C: 85.5%
Second compound 10 µM, first compound 0.001 µM
  viability, T/C: 97.7%
Second compound 10 µM, first compound 0.00316 µM
  viability, T/C: 66.9%
[25]
  viability, T/C: 81.5%
[26]
  viability, T/C: 51.6%
[27]
  viability, T/C: 46.8%

## O=C(c1cc(Cc2n[nH]c(=O)c3ccccc23)ccc1F)N1CCN(C(=O)C2CC2)CC1 + CC1OCC2(CCN(c3cnc(Sc4ccnc(N)c4Cl)c(N)n3)CC2)C1N
Second compound 0.1 µM
  pIC50: < 5.00
Second compound 0.316 µM
  pIC50: < 5.00
Second compound 1 µM
  pIC50: < 5.00
Second compound 3.16 µM
  pIC50: < 5.00
Second compound 10 µM
  pIC50: < 5.00
[2]
  viability, T/C: 104%
[3]
  viability, T/C: 107%
[4]
  viability, T/C: 93.8%
[5]
  viability, T/C: 88%
[6]
  viability, T/C: 102%
Second compound 0.1 µM, first compound 10 µM
  viability, T/C: 91.3%
[8]
  viability, T/C: 92.8%
[9]
  viability, T/C: 95%
[10]
  viability, T/C: 90.6%
[11]
  viability, T/C: 93.7%
[12]
  viability, T/C: 94.7%
Second compound 0.316 µM, first compound 10 µM
  viability, T/C: 92.4%
[14]
  viability, T/C: 93.6%
[15]
  viability, T/C: 87.1%
[16]
  viability, T/C: 80.6%
[17]
  viability, T/C: 83.7%
[18]
  viability, T/C: 87.6%
Second compound 1 µM, first compound 10 µM
  viability, T/C: 84%
[20]
  viability, T/C: 79.4%
[21]
  viability, T/C: 73.1%
[22]
  viability, T/C: 73.2%
[23]
  viability, T/C: 71.2%
[24]
  viability, T/C: 79.3%
Second compound 3.16 µM, first compound 10 µM
  viability, T/C: 65.5%
[26]
  viability, T/C: 68.9%
[27]
  viability, T/C: 75.4%
[28]
  viability, T/C: 66.1%
[29]
  viability, T/C: 59.9%
[30]
  viability, T/C: 58.1%
Second compound 10 µM, first compound 10 µM
  viability, T/C: 60.7%
